Test results from article PMC8579695, “The Stringent Response Inhibits 70S Ribosome Formation in Staphylococcus aureus by Impeding GTPase-Ribosome Interactions” (mBio, 2021).

What was measured:
[1] = molecular target: Era (Staphylococcus aureus, UniProt Q2FGF6); experiment: DRaCALA binding of 32P-labeled nucleotides to 6×His-tagged Era; settings: for Bmax, Era: mean ± SEM, Bmax values indicate the fraction bound
Method: (§1) The RA-GTPases RsgA, Era, RbgA, and HflX can bind to the guanosine nucleotides GTP, GDP, ppGpp, and pppGpp. Our previous work observed higher binding affinities for ppGpp over GTP, pointing toward a difference in binding between 5′ di- or triphosphate nucleotides ([27]). […] Furthermore, these previous experiments were performed using recombinant proteins fused to large MBP tags, which could impact binding affinity determination. To examine the nucleotide binding affinities of these RA-GTPases for GDP in comparison to ppGpp, pppGpp, and GTP, and in the absence of a large tag, we used a differential radial capillary action of ligand assay (DRaCALA) with recombinant RsgA, RbgA, Era, and HflX fused to a smaller 6× His tag (Fig. 1B; see also Fig. S2A to C in the supplemental material) ([36]). In each case, the affinities of 5′ diphosphate-containing GDP and ppGpp were similar in the low μM range and were 2- to 6-fold higher than the affinities of either GTP or pppGpp (Table 1).
(§2) Supplementary file : FIG S2 Examination of the binding of GDP, ppGpp, GTP, and pppGpp to RA-GTPases by DRaCALA. (A to C) Determination of binding affinities and Kd values for ^32P-labeled nucleotides to purified recombinant 6×His-tagged RsgA (A), Era (B), and HflX (C). Kd values were determined from the binding curves as previously described ([36]). (D to F) DRaCALA binding assay of recombinant RsgA (D), Era (E), and HflX (F) binding to ^32P-labeled GTP, ppGpp, and pppGpp in the presence or absence of 100 μM cold competitors (GTP, GDP, ppGpp, pppGpp, and ATP). All experiments were carried out in triplicate, with error bars representing standard deviations. Download FIG S2, TIF file, 0.9 MB.
(§3) The synthesis of (p)ppGpp and differential radial capillary action of ligand assay (DRaCALA) binding and competition assays were performed as described previously ([27]), using recombinant, 6×His-tagged protein at the concentrations specified in the figure legends.

[2] = molecular target: RbgA (Staphylococcus aureus, UniProt A0A0H2XK72); experiment: DRaCALA binding of 32P-labeled nucleotides to 6×His-tagged RbgA; settings: for Bmax, RbgA: mean ± SEM, Bmax values indicate the fraction bound
From the text: FIG 1 Nucleotide binding characteristics of RA-GTPases. (A) Schematic representation of the domain structure of Era, RsgA, RbgA, and HflX from S. aureus. The conserved GTPase domain (G domain) is colored in green, and accessory domains are shown. (B) Determination of binding affinities and Kd values for ^32P-labeled GTP, GDP, ppGpp, and pppGpp with purified recombinant 6×His-tagged RbgA using DRaCALA, as previously described ([36]). Each point is the mean average of at least three technical replicates, and error bars indicate standard deviations. (C) Binding assay (DRaCALA) of recombinant RbgA binding to ^32P-labeled GTP, ppGpp, and pppGpp in the presence of an excess of cold competitor (GTP, GDP, ppGpp, pppGpp, or ATP). All experiments were carried out in triplicate, with error bars representing standard deviations.
as §1, §3

[3] = molecular target: RsgA (Staphylococcus aureus, UniProt P67682); experiment: DRaCALA binding of 32P-labeled nucleotides to 6×His-tagged RsgA; settings: for Bmax, RsgA: mean ± SEM, Bmax values indicate the fraction bound
Method: as §1, §2, §3

[4] = molecular target: HflX (Staphylococcus aureus, UniProt Q2FYY9); experiment: DRaCALA binding of 32P-labeled nucleotides to 6×His-tagged HflX; settings: for Bmax, HflX: mean ± SEM, Bmax values indicate the fraction bound
Method: as §1, §2, §3

[5] = molecular target: Era association to the 30S ribosomal subunit (Staphylococcus aureus, UniProt Q2FGF6); experiment: In vitro ribosome association assay (sucrose gradient, α-His Western immunoblot), Era; type: binding; settings: 40 μM nucleotide; compared to apo, GTP, or GMPPNP-bound states
From the text: (§4) It is well characterized that rRNA transcription decreases during the stringent response ([39]). In addition, the GTPase activity of ribosome assembly cofactors is inhibited by (p)ppGpp, both of which contribute to a reduction in mature ribosomes within the cell ([27]). To examine mechanistically how (p)ppGpp-GTPase interactions affect the ability of RA-GTPases to associate with ribosomal subunits, we examined the association of each GTPase to either the 30S or 50S ribosomal subunit in the presence of GDP, GTP, ppGpp, and pppGpp, as well as GMPPNP, a nonhydrolyzable analogue of GTP. The production and isolation of immature subunits, which can comprise several different immature states, introduces a large degree of heterogeneity, and so here we, and others, use homogenous mature particles as a system to examine the binding event, rather than the role of GTPase activity in downstream maturation ([11], [12], [29], [40], [41]). His-tagged GTPases were preincubated with highly pure, salt-washed 70S S. aureus ribosomes in a low-magnesium buffer to encourage ribosomal subunit dissociation, and the amount of each GTPase associated with each of the subunits was quantified by Western immunoblotting with anti-His antibodies after sucrose gradient separation. […]
(§5) FIG 2 (p)ppGpp and GDP binding reduces RA-GTPase association to the ribosome. […] After subunit separation and precipitation, bound proteins were detected in the 30S fraction using HRP-conjugated α-His antibodies. […] Bound proteins were detected in the 50S fraction using HRP-conjugated α-His antibodies. […]
(§6) A 500 nM concentration of recombinant 6×His-tagged RA-GTPase was incubated at room temperature for 5 min with 200 nM S. aureus 70S ribosomes in dissociation buffer (20 mM Tris [pH 7.5], 120 mM NH4Cl, 1.5 mM MgCl2, 2 mM β-mercaptoethanol) in the apo form and in the presence of 40 μM GTP, GMPPNP, GDP, ppGpp, or pppGpp. […] Gradients were fractionated by upward displacement of 250-μl aliquots, which were analyzed for RNA content at an absorbance of 260 nm. […]

[6] = system: HflX association to the 30S and 50S ribosomal subunits; experiment: In vitro ribosome association assay (sucrose gradient, α-His Western immunoblot), HflX; type: binding, Staphylococcus aureus; settings: 40 μM nucleotide; compared to apo, GTP, or GMPPNP-bound states
From the text: as §4, §5, §6

[7] = system: RA-GTPases RsgA, RbgA, Era, and HflX; experiment: DRaCALA binding and competition assays across the four RA-GTPases; set-up: species or system Staphylococcus aureus; settings: 100 μM cold competitor
From the text: FIG 1 Nucleotide binding characteristics of RA-GTPases. (A) Schematic representation of the domain structure of Era, RsgA, RbgA, and HflX from S. aureus. The conserved GTPase domain (G domain) is colored in green, and accessory domains are shown. (B) Determination of binding affinities and Kd values for ^32P-labeled GTP, GDP, ppGpp, and pppGpp with purified recombinant 6×His-tagged RbgA using DRaCALA, as previously described ([36]). Each point is the mean average of at least three technical replicates, and error bars indicate standard deviations. (C) Binding assay (DRaCALA) of recombinant RbgA binding to ^32P-labeled GTP, ppGpp, and pppGpp in the presence of an excess of cold competitor (GTP, GDP, ppGpp, pppGpp, or ATP). All experiments were carried out in triplicate, with error bars representing standard deviations. […]
Supplementary file : FIG S2 Examination of the binding of GDP, ppGpp, GTP, and pppGpp to RA-GTPases by DRaCALA. […] Kd values were determined from the binding curves as previously described ([36]). […]
Structural data places (p)ppGpp within the GTP-binding site of the RA-GTPase RbgA ([6]), indicating a competitive mode of inhibition. […] Based on our measured affinities (Table 1), we speculate that both GDP and ppGpp will outcompete other nucleotides for occupancy of the binding site. […]

[8] = system: HflX binding to 50S ribosomes; experiment: Stopped-flow fluorescence kinetics of HflX-Atto488 association to 50S subunits; set-up: species or system Staphylococcus aureus
Method: FIG 3 Stopped-flow kinetic parameters of RA-GTPase association to the ribosomal subunits. (A) Schematic representation of the experimental setup for stopped-flow analysis. Nucleotides (brown circles), 50S subunits (orange oval), and Atto488-labeled RA-GTPases (purple hexagon) are indicated. Arrows indicate the direction of syringe movement. Atto-488 was excited using a 470-nm LED, and fluorescence was detected through a 515-nm long-pass filter. (B and C) Fluorescent change upon mixing 0.2 μM RbgA-Atto488 (B) or HflX-Atto488 (C) with 0.2 μM 50S ribosomal subunits in the presence of 100 μM GTP, ppGpp, and pppGpp or in the apo state using the stopped-flow fluorescence apparatus. Fluorescently labeled protein was also mixed with buffer lacking 50S subunits as a mixing control. Fluorescence of the reaction was tracked using exponential sampling for 10 s, and each curve represents the mean average of at least five technical replicates. (D) kapp1 dependence on 50S concentration for HflX complexed with GTP (green), ppGpp (pink), and pppGpp (black). (E) Same as for panel D for the kapp2 dependence. (F and G) Sum and product analyses of apparent rates during HflX association to the 50S subunit. HflX-Atto488 (0.05 μM) was mixed with increasing titrations of 50S ribosomal subunits over the fluorescently labeled protein in the presence of 20 μM GTP or ppGpp. The resultant traces (see Fig. S4) were analyzed by nonlinear regression using two exponential terms. The sum (F) and product (G) of apparent rates (kapp1 [D] and kapp2 [E]) were plotted as a function of the total concentration of the 50S subunits and HflX protein to determine the microscopic constants k1, k-1, k2, and k-2 (Table 2) and the resulting dissociation constant (Kd) (see Materials and Methods). Error bars represent the standard deviations of the apparent rates of four or more individual traces (D and E) or the standard errors of the two-step analysis (F and G).
Next, we used a constant concentration of protein in the presence of 200-fold excess of each nucleotide and titrated it with increasing concentrations of ribosomal subunits (see Fig. S4). […]
For initial controls, 0.2 μM Atto-488-labeled proteins were rapidly mixed with 0.2 μM E. coli 50S ribosomal subunits (purified as described elsewhere) in TAKM7 buffer (25 mM Tris-HCl [pH 7.4], 70 mM ammonium acetate, 30 mM KCl, 7 mM MgCl2) using an SX20 stopped-flow apparatus (Applied Photophysics) in the presence or absence of GTP, ppGpp, and pppGpp. […] Atto-488 was excited using a 470-nm LED and fluorescence was detected through a 515-nm long-pass filter. Reactions were monitored for 10 s, with 1,000 total data points per reaction. Each condition was subject to at least five technical repeats, with curves representing the mean average fluorescence of the technical repeats. […]

RbgA, sequence (A0A0H2XK72 entry or part of it): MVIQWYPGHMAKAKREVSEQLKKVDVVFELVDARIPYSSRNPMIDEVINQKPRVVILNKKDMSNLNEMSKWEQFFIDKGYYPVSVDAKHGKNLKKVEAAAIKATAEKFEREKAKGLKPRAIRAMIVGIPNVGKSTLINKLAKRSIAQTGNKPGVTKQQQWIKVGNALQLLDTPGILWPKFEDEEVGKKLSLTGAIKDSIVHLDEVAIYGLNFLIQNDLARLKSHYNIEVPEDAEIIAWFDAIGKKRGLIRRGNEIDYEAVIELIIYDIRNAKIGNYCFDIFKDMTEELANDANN
HflX, sequence (Q2FYY9 entry or part of it): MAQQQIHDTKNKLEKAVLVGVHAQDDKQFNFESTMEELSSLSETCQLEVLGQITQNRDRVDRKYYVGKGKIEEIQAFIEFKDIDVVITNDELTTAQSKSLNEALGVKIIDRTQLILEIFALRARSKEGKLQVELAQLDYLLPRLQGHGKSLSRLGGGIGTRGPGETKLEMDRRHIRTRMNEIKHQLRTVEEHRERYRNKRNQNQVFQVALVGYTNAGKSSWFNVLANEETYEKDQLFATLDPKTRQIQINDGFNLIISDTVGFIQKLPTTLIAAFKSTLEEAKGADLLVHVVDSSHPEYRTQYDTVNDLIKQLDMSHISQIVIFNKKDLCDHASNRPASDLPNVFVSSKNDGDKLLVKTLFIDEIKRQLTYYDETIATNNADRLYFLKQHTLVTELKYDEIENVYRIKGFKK
RsgA, sequence (P67682 whole entry): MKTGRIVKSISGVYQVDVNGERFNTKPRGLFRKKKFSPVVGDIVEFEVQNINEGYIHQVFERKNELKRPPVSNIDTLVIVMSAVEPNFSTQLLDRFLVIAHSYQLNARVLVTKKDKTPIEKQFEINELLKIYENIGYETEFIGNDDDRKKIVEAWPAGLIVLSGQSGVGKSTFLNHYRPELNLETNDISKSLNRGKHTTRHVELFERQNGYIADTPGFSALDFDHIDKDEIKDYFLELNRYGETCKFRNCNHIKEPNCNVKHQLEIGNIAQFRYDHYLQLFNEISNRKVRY
Era, sequence (Q2FGF6 whole entry, the tested form may be a part): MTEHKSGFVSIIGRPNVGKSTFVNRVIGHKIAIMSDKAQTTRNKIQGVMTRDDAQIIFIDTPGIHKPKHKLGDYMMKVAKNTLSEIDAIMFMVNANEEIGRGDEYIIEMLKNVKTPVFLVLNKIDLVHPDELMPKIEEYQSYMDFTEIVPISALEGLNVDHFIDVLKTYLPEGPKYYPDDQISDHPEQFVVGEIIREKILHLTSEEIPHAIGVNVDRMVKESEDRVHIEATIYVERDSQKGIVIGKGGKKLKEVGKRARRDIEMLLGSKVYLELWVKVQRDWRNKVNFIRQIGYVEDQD
Era association to the 30S ribosomal subunit, sequence (Q2FGF6 whole entry): as the sequence (Q2FGF6 whole entry, the tested form may be a part) above

Compound: Nc1nc2c(ncn2[C@@H]2O[C@H](COP(=O)(O)OP(=O)(O)O)[C@@H](O)[C@H]2O)c(=O)[nH]1 [GDP]
- Kd [1]: 4.9 ± 0.7 µM
- Bmax, Era [1]: 0.5 ± 0.0
- Kd [2]: 6.1 ± 1.1 µM
- Bmax, RbgA [2]: 0.5 ± 0.0
- Kd [3]: 1800 ± 200 nM
- Bmax, RsgA [3]: 0.9 ± 0.0
- Kd [4]: 4.9 ± 0.7 µM
- Bmax, HflX [4]: 0.7 ± 0.0
- reduction in ribosome binding of Era [5]: 2 fold
- reduction in ribosome binding of HflX [6]: 2 fold
- competition of cold unlabeled nucleotide with 32P-labeled GTP, ppGpp, pppGpp [7]: competing more effectively

Compound: Nc1nc2c(ncn2[C@@H]2O[C@H](COP(=O)(O)OP(=O)(O)OP(=O)(O)O)[C@@H](O)[C@H]2O)c(=O)[nH]1 [GTP]
- Kd [1]: 11.5 ± 1.6 µM
- Bmax, Era [1]: 0.3 ± 0.0
- Kd [2]: 18.5 ± 5.4 µM
- Bmax, RbgA [2]: 0.4 ± 0.0
- Kd [3]: 3600 ± 400 nM
- Bmax, RsgA [3]: 0.8 ± 0.0
- Bmax, HflX [4]: 0.7 ± 0.3
- kapp2 of HflX association to 50S ([8]; GTP: hyperbolic, plateau, ppGpp: independent of 50S concentration): ~2 s⁻¹
- linear increase in kapp1 of HflX, GTP relative to ppGpp or pppGpp ([8]; dependence on 50S concentration): 2 fold
